Values quoted from earlier work in patent US20070071815A1 (priority 2004, published 2007).

half-life of creatine in blood plasma: 1 to 1.5 h
SMILES: CN(CC(=O)O)C(=N)N [creatine, N-(aminoiminomethyl)-N-methylglycine]
